In patent publication US20050112573A1, “Method of detecting toxic substance” (priority 2001, published 2005):

Test system: yeast genes (level of expressed mRNA)
Assay: DNA chip analysis of expressed mRNA of yeast genes after 2 h culture with a toxic chemical substance
Format: cell-based, Saccharomyces cerevisiae S288C
Method: Yeast (Saccharomyces cerevtisiae S288C (α SUC2mal mel gap2 CUP1)) were cultured at 25° C. on YPD medium (yeast extract 1%, polypepton 2%, glucose 2%). One of toxic chemical substances was added to the cell at logarithmic growth phase, and the cell was further cultured for two hours. Cell was cultured without any chemical substance in the same condition, and was used as control. Concentrations of the chemical substances were defined to inhibit the growth of the yeast but not lead to death.
After the completion of cultivation, the culture was centrifuged to collect the cells. To the cells, sodium acetate buffer (50 mM sodium acetate, 10 mM EDTA, 1% SDS) was added, and the mixture was shaken at 65° C. for five minutes, followed by returning to room temperature, and obtaining the supernatant, which procedure was repeated two times. To the supernatant, ½ amount of a solution of phenol/chloroform was added, and the mixture was centrifuged to give a supernatant, which was added with an equal amount of chloroform, and the mixture was centrifuged to give a supernatant. To the supernatant, an equal amount of isopropanol containing 0.3 M sodium acetate was added, and the mixture was allowed to stand at room temperature for 30 minutes, after which the mixture was centrifuged to give a sediment of the whole RNAs. Seventy % ethanol was added to the sediment, and the mixture was again centrifuged to give a sediment, which was then dried and dissolved in water. mRNA was isolated from the whole RNAs as followings. In view of the fact that a poly A chain is attached to the 3′ terminus of mRNA, a polynucleotide having a poly T structure which was immobilized on the surface of latex beads was used to trap the mRNA, and then the mRNA was washed and eluted with spine column (Oligotex-dT30<Super>mRNA Purification Kit, Takara). Reverse transcription of the mRNA was conducted with a reverse transcriptase (Super Script II Reverse Transcriptase; catalogue No. 18064-014, GibcoBRL) using fluorescence-labeled nucleotides to give cDNAs that were introduced with Cy3-dUTP or Cy5-dUTP during the reverse transcription.
The labeled cDNAs were dissolved in TE buffer (10 mM Tris-HCl/1 mM EDTA, pH8.0), and the solution was dropped on the DNA chip containing the whole genes of yeast (DNA Chip Research Inc. Japan) so that the cDNAs were hybridized on the DNA chip at 65° C. for over 12 hours. The fluoresces intensity of the DNA chip was read with a scanner, and the ratio relative to the fluorescence intensity resulting from the absence of chemical substance was estimated as the following, which is shown in Tables 1 to 9: [formula]
In the Tables, “Intensity” indicated in the rightmost column is a value of the level of expressed mRNA of each gene in control cells as divided by the average level of the expressions of the whole genes.

CCCCCCCCCCCCOS(=O)(=O)[O-].[Na+] [(18), sodium lauryl sulfate]
1.2: level of expressed mRNA in the presence of chemical substance/in its absence (gene YIL033C)
0.6: The level of expressed mRNA in the presence of chemical substance/absence: YIL127C (gene YIL127C) | The level of expressed mRNA in the presence of chemical substance/absence: YLR338W (gene YLR338W) | The level of expressed mRNA in the presence of chemical substance/absence: YLR339C (gene YLR339C)
1.1: The level of expressed mRNA in the presence of chemical substance/absence: YJL032W (gene YJL032W) | The level of expressed mRNA in the presence of chemical substance/absence: YJL049W (gene YJL049W) | The level of expressed mRNA in the presence of chemical substance/absence: YJL097W (gene YJL097W) | level of expressed mRNA in the presence of chemical substance/in its absence (gene YKR039W)
3.6: The level of expressed mRNA in the presence of chemical substance/absence: YHL021C (gene YHL021C)
1.3: level of expressed mRNA in the presence of chemical substance/in its absence (gene YHR092C) | The level of expressed mRNA in the presence of chemical substance/absence: YHR134W (gene YHR134W) | level of expressed mRNA in the presence of chemical substance/in its absence (gene YHR137W) | The level of expressed mRNA in the presence of chemical substance/absence: YIL165C (gene YIL165C)
1.8: level of expressed mRNA in the presence of chemical substance/in its absence (gene YHR190W)
0.8: level of expressed mRNA in the presence of chemical substance/in its absence (gene YIL167W) | The level of expressed mRNA in the presence of chemical substance/absence: YKR040C (gene YKR040C) | The level of expressed mRNA in the presence of chemical substance/absence: YML013W (gene YML013W)
1.9: level of expressed mRNA in the presence of chemical substance/in its absence (gene YJL196C) | The level of expressed mRNA in the presence of chemical substance/absence: YKL094W (gene YKL094W)
0.5: The level of expressed mRNA in the presence of chemical substance/absence: YKL097C (gene YKL097C) | level of expressed mRNA in the presence of chemical substance/in its absence (gene YLR300W)
0.9: The level of expressed mRNA in the presence of chemical substance/absence: YGR293C (gene YGR293C) | The level of expressed mRNA in the presence of chemical substance/absence: YHL037C (gene YHL037C) | The level of expressed mRNA in the presence of chemical substance/absence: YHR105W (gene YHR105W) | The level of expressed mRNA in the presence of chemical substance/absence: YHR181W (gene YHR181W) | level of expressed mRNA in the presence of chemical substance/in its absence (gene YIR035C) | The level of expressed mRNA in the presence of chemical substance/absence: YJL037W (gene YJL037W) | level of expressed mRNA in the presence of chemical substance/in its absence (gene YJL088W) | The level of expressed mRNA in the presence of chemical substance/absence: YJR030C (gene YJR030C) | The level of expressed mRNA in the presence of chemical substance/absence: YKL059C (gene YKL059C)
0.7: The level of expressed mRNA in the presence of chemical substance/absence: YHR095W (gene YHR095W) | The level of expressed mRNA in the presence of chemical substance/absence: YIL108W (gene YIL108W) | level of expressed mRNA in the presence of chemical substance/in its absence (gene YLR180W)
1.7: level of expressed mRNA in the presence of chemical substance/in its absence (gene YJR148W) | The level of expressed mRNA in the presence of chemical substance/absence: YLR097C (gene YLR097C)
2.3: level of expressed mRNA in the presence of chemical substance/in its absence (gene YJR159W)
1.4: level of expressed mRNA in the presence of chemical substance/in its absence (gene YHR037W) | level of expressed mRNA in the presence of chemical substance/in its absence (gene YJR142W) | The level of expressed mRNA in the presence of chemical substance/absence: YKL051W (gene YKL051W)
1.0: The level of expressed mRNA in the presence of chemical substance/absence: YHL006C (gene YHL006C) | The level of expressed mRNA in the presence of chemical substance/absence: YHR083W (gene YHR083W) | The level of expressed mRNA in the presence of chemical substance/absence: YHR180W (gene YHR180W) | level of expressed mRNA in the presence of chemical substance/in its absence (gene YIL154C) | The level of expressed mRNA in the presence of chemical substance/absence: YJL017W (gene YJL017W) | The level of expressed mRNA in the presence of chemical substance/absence: YKL090W (gene YKL090W) | The level of expressed mRNA in the presence of chemical substance/absence: YLR226W (gene YLR226W) | level of expressed mRNA in the presence of chemical substance/in its absence (gene YLR273C) | level of expressed mRNA in the presence of chemical substance/in its absence (gene YLR307W) | The level of expressed mRNA in the presence of chemical substance/absence: YLR415C (gene YLR415C) | The level of expressed mRNA in the presence of chemical substance/absence: YLR427W (gene YLR427W) | The level of expressed mRNA in the presence of chemical substance/absence: YML029W (gene YML029W)
1.6: The level of expressed mRNA in the presence of chemical substance/absence: YJR044C (gene YJR044C) | The level of expressed mRNA in the presence of chemical substance/absence: YLR392C (gene YLR392C)
1.5: level of expressed mRNA in the presence of chemical substance/in its absence (gene YJL132W) | The level of expressed mRNA in the presence of chemical substance/absence: YKL100C (gene YKL100C)
3.2: level of expressed mRNA in the presence of chemical substance/in its absence (gene YKL067W) | level of expressed mRNA in the presence of chemical substance/in its absence (gene YLR142W)
